{"source": "paper PMC4595045", "about": "(Journal of medicinal chemistry, 2013)", "key": {"CaV1.3 LTCCs [1]": {"molecular_target": "T1, CaV1.3 LTCCs (Rattus norvegicus, UniProt P27732)", "T1 sequence (P27732 whole entry)": "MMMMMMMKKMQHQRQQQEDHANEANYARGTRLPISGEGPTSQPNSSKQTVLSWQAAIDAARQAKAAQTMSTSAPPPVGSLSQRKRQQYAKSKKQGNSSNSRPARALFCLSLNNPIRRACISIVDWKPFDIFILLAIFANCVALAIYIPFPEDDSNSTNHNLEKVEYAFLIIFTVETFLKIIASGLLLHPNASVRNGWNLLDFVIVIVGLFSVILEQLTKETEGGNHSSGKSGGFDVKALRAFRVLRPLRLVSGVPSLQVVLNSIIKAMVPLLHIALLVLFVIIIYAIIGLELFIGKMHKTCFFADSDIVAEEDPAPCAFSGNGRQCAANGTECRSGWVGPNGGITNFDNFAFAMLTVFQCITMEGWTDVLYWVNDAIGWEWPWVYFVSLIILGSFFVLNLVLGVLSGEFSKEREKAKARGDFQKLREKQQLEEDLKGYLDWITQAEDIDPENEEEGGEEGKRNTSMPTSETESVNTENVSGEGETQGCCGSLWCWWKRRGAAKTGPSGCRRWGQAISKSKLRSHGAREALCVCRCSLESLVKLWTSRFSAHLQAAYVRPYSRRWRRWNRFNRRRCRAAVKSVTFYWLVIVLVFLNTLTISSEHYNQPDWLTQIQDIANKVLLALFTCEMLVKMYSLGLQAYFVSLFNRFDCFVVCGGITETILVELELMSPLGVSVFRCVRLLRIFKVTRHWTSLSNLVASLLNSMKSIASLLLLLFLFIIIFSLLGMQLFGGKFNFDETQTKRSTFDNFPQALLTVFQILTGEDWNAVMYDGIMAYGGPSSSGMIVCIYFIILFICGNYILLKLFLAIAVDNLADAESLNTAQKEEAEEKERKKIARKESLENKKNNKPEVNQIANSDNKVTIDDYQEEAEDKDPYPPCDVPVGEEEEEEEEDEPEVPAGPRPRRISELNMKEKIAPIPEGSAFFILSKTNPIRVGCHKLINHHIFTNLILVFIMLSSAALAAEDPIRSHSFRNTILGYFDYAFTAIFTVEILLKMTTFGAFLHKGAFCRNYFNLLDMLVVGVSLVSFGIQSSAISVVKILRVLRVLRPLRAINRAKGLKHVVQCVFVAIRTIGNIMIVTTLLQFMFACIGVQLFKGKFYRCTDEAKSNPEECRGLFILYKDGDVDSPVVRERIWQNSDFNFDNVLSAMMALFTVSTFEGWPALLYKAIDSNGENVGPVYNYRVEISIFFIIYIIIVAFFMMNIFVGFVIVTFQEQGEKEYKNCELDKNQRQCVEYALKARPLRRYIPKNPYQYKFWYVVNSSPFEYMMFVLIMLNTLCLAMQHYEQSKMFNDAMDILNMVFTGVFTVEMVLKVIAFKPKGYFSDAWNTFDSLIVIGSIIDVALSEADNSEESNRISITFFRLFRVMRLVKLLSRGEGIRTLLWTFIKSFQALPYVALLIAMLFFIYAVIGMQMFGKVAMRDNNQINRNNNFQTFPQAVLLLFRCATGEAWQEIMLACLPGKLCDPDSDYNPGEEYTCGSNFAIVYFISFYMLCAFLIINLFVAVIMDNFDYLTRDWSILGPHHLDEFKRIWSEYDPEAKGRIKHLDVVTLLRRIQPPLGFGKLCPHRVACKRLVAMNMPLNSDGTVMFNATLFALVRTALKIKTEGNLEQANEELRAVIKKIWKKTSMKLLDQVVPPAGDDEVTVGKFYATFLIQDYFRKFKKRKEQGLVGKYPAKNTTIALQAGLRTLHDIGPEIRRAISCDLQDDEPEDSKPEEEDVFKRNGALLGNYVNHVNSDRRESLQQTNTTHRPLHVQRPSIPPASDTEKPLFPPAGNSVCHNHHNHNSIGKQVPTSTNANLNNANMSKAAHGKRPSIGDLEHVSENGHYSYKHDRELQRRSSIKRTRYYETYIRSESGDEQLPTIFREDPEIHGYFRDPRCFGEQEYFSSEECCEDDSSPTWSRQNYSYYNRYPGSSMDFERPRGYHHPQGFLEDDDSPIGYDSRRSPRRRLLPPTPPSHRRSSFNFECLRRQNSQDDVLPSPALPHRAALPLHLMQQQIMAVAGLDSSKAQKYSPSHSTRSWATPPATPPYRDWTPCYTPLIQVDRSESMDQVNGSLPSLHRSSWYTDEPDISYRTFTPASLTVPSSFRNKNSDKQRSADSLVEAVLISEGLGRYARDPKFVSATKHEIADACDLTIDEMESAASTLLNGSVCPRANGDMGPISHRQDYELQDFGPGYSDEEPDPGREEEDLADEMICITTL", "T1 sequence (P54287 whole entry partner)": "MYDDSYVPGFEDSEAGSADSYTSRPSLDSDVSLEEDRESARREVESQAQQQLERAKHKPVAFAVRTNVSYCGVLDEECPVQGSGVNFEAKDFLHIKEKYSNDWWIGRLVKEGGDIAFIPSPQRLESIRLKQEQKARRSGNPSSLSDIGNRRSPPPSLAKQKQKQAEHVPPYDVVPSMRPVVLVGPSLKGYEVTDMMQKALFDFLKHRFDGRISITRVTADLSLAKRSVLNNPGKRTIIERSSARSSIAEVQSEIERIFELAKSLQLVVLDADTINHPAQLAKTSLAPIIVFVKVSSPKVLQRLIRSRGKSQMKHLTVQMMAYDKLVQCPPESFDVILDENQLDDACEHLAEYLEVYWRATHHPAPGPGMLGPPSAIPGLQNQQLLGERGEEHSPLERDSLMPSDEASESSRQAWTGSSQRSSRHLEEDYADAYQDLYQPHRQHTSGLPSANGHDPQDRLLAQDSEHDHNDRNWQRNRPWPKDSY", "T1 sequence (P54290 25-1091 partner)": "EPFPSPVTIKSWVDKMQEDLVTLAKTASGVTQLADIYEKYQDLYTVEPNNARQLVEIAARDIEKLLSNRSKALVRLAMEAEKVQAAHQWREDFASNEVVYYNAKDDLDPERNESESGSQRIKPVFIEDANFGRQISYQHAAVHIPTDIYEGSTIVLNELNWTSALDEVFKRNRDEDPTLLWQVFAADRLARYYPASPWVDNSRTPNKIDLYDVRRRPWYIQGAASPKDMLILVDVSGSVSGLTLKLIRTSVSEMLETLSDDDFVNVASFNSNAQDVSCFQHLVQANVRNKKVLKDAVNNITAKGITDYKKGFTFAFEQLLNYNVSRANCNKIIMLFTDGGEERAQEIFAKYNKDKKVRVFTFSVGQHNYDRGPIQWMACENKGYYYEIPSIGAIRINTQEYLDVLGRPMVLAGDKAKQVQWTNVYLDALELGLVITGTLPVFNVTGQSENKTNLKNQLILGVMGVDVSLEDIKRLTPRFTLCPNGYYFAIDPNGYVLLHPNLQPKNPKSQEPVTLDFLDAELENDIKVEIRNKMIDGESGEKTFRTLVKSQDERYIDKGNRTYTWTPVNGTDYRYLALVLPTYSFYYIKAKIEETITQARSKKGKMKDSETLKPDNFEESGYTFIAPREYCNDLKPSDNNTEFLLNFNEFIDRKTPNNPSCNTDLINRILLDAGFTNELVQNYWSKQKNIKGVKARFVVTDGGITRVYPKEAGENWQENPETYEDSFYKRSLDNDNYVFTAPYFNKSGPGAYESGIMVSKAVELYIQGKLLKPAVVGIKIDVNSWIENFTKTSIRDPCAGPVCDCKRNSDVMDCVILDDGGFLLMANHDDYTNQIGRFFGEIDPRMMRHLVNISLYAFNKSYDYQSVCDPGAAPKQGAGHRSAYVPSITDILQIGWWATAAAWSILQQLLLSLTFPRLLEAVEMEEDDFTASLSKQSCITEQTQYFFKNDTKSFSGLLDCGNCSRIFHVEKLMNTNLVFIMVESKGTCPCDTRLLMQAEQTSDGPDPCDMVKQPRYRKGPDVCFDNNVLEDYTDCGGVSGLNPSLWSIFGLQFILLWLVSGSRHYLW", "conditions": "more potent than 6; ref previous study; cited from earlier work"}, "CaV1.3 LTCCs [2]": {"molecular_target": "T1, CaV1.3 LTCCs", "experiment": "FLIPR Fluo-8 calcium influx assay, HEK293 cells stably expressing CaV1.3", "format": "cell-based", "conditions": "for Selectivity, ratio of the IC50 values (CaV1.2/CaV1.3): CaV1.3 over CaV1.2; for binding to CaV1.3 LTCCs (in words): bulky bicyclic ring analogues; for binding affinity for CaV1.3 LTCCs (in words): even at 100 µM"}, "CaV1.2 LTCCs": {"molecular_target": "CaV1.2 LTCCs (Oryctolagus cuniculus, UniProt P15381)", "experiment": "FLIPR Fluo-8 calcium influx assay, HEK293 cells stably expressing CaV1.2", "format": "cell-based, rabbit", "conditions": "for binding to CaV1.2 LTCCs (in words): bulky bicyclic ring analogues; for binding affinity for CaV1.2 LTCCs (in words): even at 100 µM"}}, "data": [{"smiles": "O=C1CC(=O)N(C2CC3CCC2C3)C(=O)N1CCc1ccc(Cl)cc1", "note": "(mixture of isomers) [Compound 7, N-(4-chlorophenethyl)-N′-(±)-endo-norbornylpyrimidine-2,4,6-(1H,3H,5H)-trione]", "values": [{"measurement": "potency toward CaV1.3 LTCC relative to 6", "setting": "CaV1.3 LTCCs [1]", "value": 3, "unit": "fold"}]}, {"smiles": "C[C@@H](C1CCCCC1)N1C(=O)CC(=O)N(CCc2ccc(Cl)cc2)C1=O", "note": "[Compound 44, (S)-1-(4-Chlorophenethyl)-3-(1-cyclohexylethyl)pyrimidine-2,4,6(1H,3H,5H)-trione]", "values": [{"measurement": "Selectivity, ratio of the IC50 values (CaV1.2/CaV1.3)", "setting": "CaV1.3 LTCCs [2]", "value": ">12"}]}, {"smiles": "C[C@H](C1CCCCC1)N1C(=O)CC(=O)N(CCc2ccc(Cl)cc2)C1=O", "note": "[Compound 46, (R)-1-(4-Chlorophenethyl)-3-(1-cyclohexylethyl)pyrimidine-2,4,6(1H,3H,5H)-trione]", "values": [{"measurement": "Selectivity, ratio of the IC50 values (CaV1.2/CaV1.3)", "setting": "CaV1.3 LTCCs [2]", "value": ">12"}]}, {"smiles": "O=C1CC(=O)N([C@H]2C[C@H]3CC[C@@H]2C3)C(=O)N1CCc1cccc(Cl)c1", "note": "[Compound 49, 1-((1R,2S,4S)-Bicyclo[2.2.1]heptan-2-yl)-3-(3-chlorophenethyl)pyrimidine-2,4,6(1H,3H,5H)-trione]", "values": [{"measurement": "Selectivity, ratio of the IC50 values (CaV1.2/CaV1.3)", "setting": "CaV1.3 LTCCs [2]", "value": ">29"}]}, {"smiles": "CC1(C)[C@@H]2CC[C@@]1(C)[C@@H](N1C(=O)CC(=O)N(CCc3cccc(Cl)c3)C1=O)C2", "note": "[Compound 53]", "values": [{"measurement": "binding to CaV1.3 LTCCs (in words)", "setting": "CaV1.3 LTCCs [2]", "value": "almost no binding"}, {"measurement": "binding to CaV1.2 LTCCs (in words)", "setting": "CaV1.2 LTCCs", "value": "almost no binding"}]}, {"smiles": "CC1(C)[C@@H]2CC[C@@]1(C)[C@@H](N1C(=O)CC(=O)N(CCc3ccc(Cl)cc3)C1=O)C2", "note": "[Compound 54]", "values": [{"measurement": "binding to CaV1.3 LTCCs (in words)", "setting": "CaV1.3 LTCCs [2]", "value": "almost no binding"}, {"measurement": "binding to CaV1.2 LTCCs (in words)", "setting": "CaV1.2 LTCCs", "value": "almost no binding"}]}, {"smiles": "CC1(C)[C@@H]2CC[C@H](CN3C(=O)CC(=O)N(CCc4cccc(Cl)c4)C3=O)[C@H]1C2", "note": "[Compound 55]", "values": [{"measurement": "binding to CaV1.3 LTCCs (in words)", "setting": "CaV1.3 LTCCs [2]", "value": "almost no binding"}, {"measurement": "binding to CaV1.2 LTCCs (in words)", "setting": "CaV1.2 LTCCs", "value": "almost no binding"}]}, {"smiles": "CC1(C)[C@@H]2CC[C@H](CN3C(=O)CC(=O)N(CCc4ccc(Cl)cc4)C3=O)[C@H]1C2", "note": "[Compound 56]", "values": [{"measurement": "binding to CaV1.3 LTCCs (in words)", "setting": "CaV1.3 LTCCs [2]", "value": "almost no binding"}, {"measurement": "binding to CaV1.2 LTCCs (in words)", "setting": "CaV1.2 LTCCs", "value": "almost no binding"}]}, {"smiles": "O=C1CC(=O)N([C@H]2CCNC2)C(=O)N1CCc1cccc(Cl)c1", "note": "[Compound 65]", "values": [{"measurement": "binding affinity for CaV1.3 LTCCs (in words)", "setting": "CaV1.3 LTCCs [2]", "value": "no binding affinity"}, {"measurement": "binding affinity for CaV1.2 LTCCs (in words)", "setting": "CaV1.2 LTCCs", "value": "no binding affinity"}]}, {"smiles": "O=C(O)[C@H]1CC[C@@H](N2C(=O)CC(=O)N(CCc3cccc(Cl)c3)C2=O)C1", "note": "[Compound 67]", "values": [{"measurement": "binding affinity for CaV1.3 LTCCs (in words)", "setting": "CaV1.3 LTCCs [2]", "value": "no binding affinity"}, {"measurement": "binding affinity for CaV1.2 LTCCs (in words)", "setting": "CaV1.2 LTCCs", "value": "no binding affinity"}]}, {"smiles": "O=C1CC(=O)N([C@H]2CCC[C@@H]2O)C(=O)N1CCc1cccc(Cl)c1", "note": "[Compound 69]", "values": [{"measurement": "binding affinity for CaV1.3 LTCCs (in words)", "setting": "CaV1.3 LTCCs [2]", "value": "no binding affinity"}, {"measurement": "binding affinity for CaV1.2 LTCCs (in words)", "setting": "CaV1.2 LTCCs", "value": "no binding affinity"}]}]}
